From PMC6268188, “Comparative Studies of the (Anti) Mutagenicity of Baccharis dracunculifolia and Artepillin C by the Bacterial Reverse Mutation Test” (Molecules, 2012)
Values joined by “and” are separate entries in the source; they are usually repeats but may differ in a detail not shown here. Equal values may be shown once. Read-outs that look alike come from different tables or passages of the source. Marks after values point to notes of the source that are not given here.

Legend:
S. typhimurium TA97a [1] = conditions: mutagen alone (Ctrol +), 1.25 μg/ plate, TA 97a, + S9; listed as AA
S. typhimurium TA98 = conditions: positive control, 1.25 μg/ plate, TA 98, + S9
S. typhimurium TA97a [2] = conditions: positive control, 1.25 μg/ plate, TA 97, + S9
S. typhimurium TA100 [3] = conditions: positive control, 1.25 μg/ plate, TA 100, + S9
S. typhimurium TA100 [4] = tested on: S. typhimurium TA100

Row | Molecule | Number of revertants (M ± SD)/ plate (S. typhimurium TA97a [1]) | Number of revertants (M ± SD)/ plate (S. typhimurium TA98) | Number of revertants (M ± SD)/ plate (S. typhimurium TA97a [2]) | Number of revertants (M ± SD)/ plate (S. typhimurium TA100 [3]) | Number of revertants (M ± SD)/ plate (S. typhimurium TA100 [4])
1 | Nc1ccc2cc3ccccc3cc2c1 [2-anthramine, 2-aminoanthracene, reference compound] | 2312 ± 81 revertants/plate and 1861 ± 23 revertants/plate | 1567 ± 115 ^e revertants/plate and 1498 ± 33^ e revertants/plate | 1789 ± 89 ^e revertants/plate and 1861 ± 23 ^e revertants/plate | 1456 ± 78 ^e revertants/plate and 1072 ± 25^ e revertants/plate | 
2 | aflatoxin B1 [AFB1, reference compound] |  |  |  |  | 2171 ± 33 revertants/plate and 2200 ± 140 revertants/plate
